# Experimental data taken from PubChem BioAssay (NCI).
#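 Briefly, cells in 96-well plates were exposed to five compound concentrations for 48 h, and endpoints were estimated by linear interpolation. The concentration for 50% growth inhibition is given as GI50. Definition used: TGI = concentration required for complete inhibition of growth.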
# Tests used:
# Assay in all cases: NCI anticancer screen, dose series, 48 h
# SK-MEL-5 melanoma = test system: SK-MEL-5 melanoma
# SF-268 CNS = test system: SF-268 CNS
# OVCAR-4 ovarian = test system: OVCAR-4 ovarian
# M14 melanoma = test system: M14 melanoma
# HS 578T breast = test system: HS 578T breast
# U251 CNS = test system: U251 CNS
# UACC-257 melanoma = test system: UACC-257 melanoma
# LOX IMVI melanoma = test system: LOX IMVI melanoma
# KM12 colon = test system: KM12 colon
# 786-0 renal = test system: 786-0 renal
# PC-3 prostate = test system: PC-3 prostate
# SW-620 colon = test system: SW-620 colon
# NCI-H226 lung = test system: NCI-H226 lung
# RXF 393 renal = test system: RXF 393 renal
# SNB-19 CNS = test system: SNB-19 CNS
# NCI-H522 lung = test system: NCI-H522 lung
# MALME-3M melanoma = test system: MALME-3M melanoma
# TK-10 renal = test system: TK-10 renal
# NCI-H23 lung = test system: NCI-H23 lung
# OVCAR-3 ovarian = test system: OVCAR-3 ovarian
# RPMI-8226 leukemia = test system: RPMI-8226 leukemia
# CAKI-1 renal = test system: CAKI-1 renal
# BT-549 breast = test system: BT-549 breast
# ACHN renal = test system: ACHN renal
# SF-539 CNS = test system: SF-539 CNS
# MDA-MB-231 breast = test system: MDA-MB-231 breast
# MCF7 breast = test system: MCF7 breast
# SK-MEL-28 melanoma = test system: SK-MEL-28 melanoma
# T-47D breast = test system: T-47D breast
# MOLT-4 leukemia = test system: MOLT-4 leukemia
# UO-31 renal = test system: UO-31 renal
# OVCAR-5 ovarian = test system: OVCAR-5 ovarian
# CCRF-CEM leukemia = test system: CCRF-CEM leukemia
# HCT-116 colon = test system: HCT-116 colon
# SN12C renal = test system: SN12C renal
# EKVX NSCLC = test system: EKVX NSCLC
# COLO 205 colon = test system: COLO 205 colon
# SNB-75 CNS = test system: SNB-75 CNS
# UACC-62 melanoma = test system: UACC-62 melanoma
# NCI-H460 lung = test system: NCI-H460 lung
# IGROV1 ovarian = test system: IGROV1 ovarian
# OVCAR-8 ovarian = test system: OVCAR-8 ovarian
# SF-295 CNS = test system: SF-295 CNS
# A549 NSCLC = test system: A549 NSCLC
# A498 renal = test system: A498 renal
# HCT-15 colon = test system: HCT-15 colon
# HOP-62 NSCLC = test system: HOP-62 NSCLC
# MDA-MB-435 = test system: MDA-MB-435
# DU-145 prostate = test system: DU-145 prostate
# K-562 leukemia = test system: K-562 leukemia
# HT29 colon = test system: HT29 colon
# HOP-92 NSCLC = test system: HOP-92 NSCLC
structure (smiles),measurement,setting,value
CCc1nc(-n2c(-c3ccccc3)nc3ccccc3c2=O)nc(N)c1-c1ccc(Cl)cc1,GI50,SK-MEL-5 melanoma,5.6 µM
same,TGI,SK-MEL-5 melanoma,33 µM
same,GI50,SF-268 CNS,73.2 µM
same,TGI,SF-268 CNS,> 100 µM
same,GI50,OVCAR-4 ovarian,> 100 µM
same,TGI,OVCAR-4 ovarian,> 100 µM
same,GI50,M14 melanoma,6.22 µM
same,TGI,M14 melanoma,> 100 µM
same,GI50,HS 578T breast,34.8 µM
same,TGI,HS 578T breast,> 100 µM
same,GI50,U251 CNS,9.19 µM
same,TGI,U251 CNS,> 100 µM
same,GI50,UACC-257 melanoma,40.3 µM
same,TGI,UACC-257 melanoma,> 100 µM
same,GI50,LOX IMVI melanoma,3.94 µM
same,TGI,LOX IMVI melanoma,> 100 µM
same,GI50,KM12 colon,26.6 µM
same,TGI,KM12 colon,> 100 µM
same,GI50,786-0 renal,5.64 µM
same,TGI,786-0 renal,> 100 µM
same,GI50,PC-3 prostate,5.64 µM
same,TGI,PC-3 prostate,90.6 µM
same,GI50,SW-620 colon,4.64 µM
same,TGI,SW-620 colon,> 100 µM
same,GI50,NCI-H226 lung,69.2 µM
same,TGI,NCI-H226 lung,> 100 µM
same,GI50,RXF 393 renal,> 100 µM
same,TGI,RXF 393 renal,> 100 µM
same,GI50,SNB-19 CNS,6.46 µM
same,TGI,SNB-19 CNS,> 100 µM
same,GI50,NCI-H522 lung,52.2 µM
same,TGI,NCI-H522 lung,> 100 µM
same,GI50,MALME-3M melanoma,23.9 µM
same,TGI,MALME-3M melanoma,> 100 µM
same,GI50,TK-10 renal,23.1 µM
same,TGI,TK-10 renal,> 100 µM
same,GI50,NCI-H23 lung,2.9 µM
same,TGI,NCI-H23 lung,39.7 µM
same,GI50,OVCAR-3 ovarian,0.554 µM
same,TGI,OVCAR-3 ovarian,30.7 µM
same,GI50,RPMI-8226 leukemia,50.3 µM
same,TGI,RPMI-8226 leukemia,> 100 µM
same,GI50,CAKI-1 renal,14.7 µM
same,TGI,CAKI-1 renal,41 µM
same,GI50,BT-549 breast,90.7 µM
same,TGI,BT-549 breast,> 100 µM
same,GI50,ACHN renal,5.53 µM
same,TGI,ACHN renal,> 100 µM
same,GI50,SF-539 CNS,23.7 µM
same,TGI,SF-539 CNS,> 100 µM
same,GI50,MDA-MB-231 breast,> 100 µM
same,TGI,MDA-MB-231 breast,> 100 µM
same,GI50,MCF7 breast,80.7 µM
same,TGI,MCF7 breast,> 100 µM
same,GI50,SK-MEL-28 melanoma,> 100 µM
same,TGI,SK-MEL-28 melanoma,> 100 µM
same,GI50,T-47D breast,27 µM
same,TGI,T-47D breast,81 µM
same,GI50,MOLT-4 leukemia,6.13 µM
same,TGI,MOLT-4 leukemia,> 100 µM
same,GI50,UO-31 renal,48.6 µM
same,TGI,UO-31 renal,> 100 µM
same,GI50,OVCAR-5 ovarian,2.86 µM
same,TGI,OVCAR-5 ovarian,> 100 µM
same,GI50,CCRF-CEM leukemia,9.94 µM
same,TGI,CCRF-CEM leukemia,> 100 µM
same,GI50,HCT-116 colon,3.28 µM
same,TGI,HCT-116 colon,> 100 µM
same,GI50,SN12C renal,15.6 µM
same,TGI,SN12C renal,> 100 µM
same,GI50,EKVX NSCLC,> 100 µM
same,TGI,EKVX NSCLC,> 100 µM
same,GI50,COLO 205 colon,14.2 µM
same,TGI,COLO 205 colon,> 100 µM
same,GI50,SNB-75 CNS,48.2 µM
same,TGI,SNB-75 CNS,> 100 µM
same,GI50,UACC-62 melanoma,6.55 µM
same,TGI,UACC-62 melanoma,> 100 µM
same,GI50,NCI-H460 lung,8 µM
same,TGI,NCI-H460 lung,> 100 µM
same,GI50,IGROV1 ovarian,27.1 µM
same,TGI,IGROV1 ovarian,> 100 µM
same,GI50,OVCAR-8 ovarian,7.96 µM
same,TGI,OVCAR-8 ovarian,> 100 µM
same,GI50,SF-295 CNS,2.26 µM
same,TGI,SF-295 CNS,20.2 µM
same,GI50,A549 NSCLC,4.98 µM
same,TGI,A549 NSCLC,> 100 µM
same,GI50,A498 renal,25 µM
same,TGI,A498 renal,92.7 µM
same,GI50,HCT-15 colon,6.43 µM
same,TGI,HCT-15 colon,> 100 µM
same,GI50,HOP-62 NSCLC,14.7 µM
same,TGI,HOP-62 NSCLC,> 100 µM
same,GI50,MDA-MB-435,3.48 µM
same,TGI,MDA-MB-435,> 100 µM
same,GI50,DU-145 prostate,72.6 µM
same,TGI,DU-145 prostate,> 100 µM
same,GI50,K-562 leukemia,3.06 µM
same,TGI,K-562 leukemia,> 100 µM
same,GI50,HT29 colon,6.62 µM
same,TGI,HT29 colon,> 100 µM
same,GI50,HOP-92 NSCLC,13.4 µM
same,TGI,HOP-92 NSCLC,> 100 µM
